According to patent US20240327353A1:
Read-outs that look alike come from different tables or passages of the source.

Key:
5-HT2CR = biological target: T1, 5-HT2CR (Homo sapiens, UniProt P28335); assay: biochemical
T1 sequence (P28335 33-458): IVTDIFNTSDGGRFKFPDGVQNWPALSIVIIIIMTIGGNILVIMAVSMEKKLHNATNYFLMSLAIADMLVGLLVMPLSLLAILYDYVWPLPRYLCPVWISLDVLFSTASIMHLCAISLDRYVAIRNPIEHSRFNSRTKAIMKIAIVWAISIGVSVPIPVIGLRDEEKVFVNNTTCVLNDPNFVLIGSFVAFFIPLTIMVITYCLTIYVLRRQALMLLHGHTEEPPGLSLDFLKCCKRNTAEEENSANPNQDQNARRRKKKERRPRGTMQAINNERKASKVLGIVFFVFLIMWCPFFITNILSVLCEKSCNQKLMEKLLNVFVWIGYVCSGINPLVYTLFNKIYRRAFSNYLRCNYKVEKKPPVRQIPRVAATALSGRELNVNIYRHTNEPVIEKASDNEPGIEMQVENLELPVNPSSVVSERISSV
Protocol: (§2) All cells were grown adherently in 10 cm plates in a humidified incubator kept at 37° C. and 5% carbon dioxide. […] Transient transfections were used to express 5-HT2A, 5-HT2C, α1A- or α1B-adrenergic receptors, whereas 5-HT7(a)Rs were stably expressed in HEK293 cells. H1Rs were transiently expressed, and D2Rs were stably expressed in CHO cells.
(§3) Transient transfections were performed on cells in the log growth phase (70-90% confluence). […] Each solution was mixed by inversion before combining, mixed by inversion again, and incubated at 37° C. for 30 minutes. Cells were then washed with 1 mL 1×PBS, followed by the gentle addition of 5 mL of transfection cocktail and 5 mL of cell culture medium with 5% (final) dialyzed FBS. Transfections were performed for 48 hours.
(§4) The affinity of ligands was determined via radioligand binding techniques using human recombinant receptors expressed in mammalian clonal cells.
(§5) Saturation binding experiments were performed on membranes expressing 5-HT2A, 5-HT2B, 5-HT2C, or H1Rs in triplicate across 8 concentrations. Competition binding assays were performed in at least triplicate with approximate Kd concentrations of radioligand. Total and nonspecific binding were determined in octet. […] Serial dilutions of unlabeled compound were made in assay buffer at 2.5× the final concentration using 10 mM DMSO stocks (final [DMSO]≤1%). Assays were terminated using rapid filtration via Whatman GF/B Fired Filters (Brandel Inc., Gaithersburg, MD) soaked in 0.3% (w/v) PEI, using an automated Tomtec Harvester 96 (Hamden, CT).
(§6) Filters were washed with 50 mM Tri-HCl (pH=7.4, 4° C.) before being oven dried and placed into scintillation vials containing 1 mL SX18-4 ScintiVerse^TM BD Cocktail (Fisher Chemical, Fair Lawn, NJ).
(§7) GraphPad Prism (La Jolla, CA) version 9.1.1 was used to analyze all experimental data in this work. To analyze data from saturation binding studies, the radioligand counts per minute (cpm) were normalized to fmol/mg protein bound and then fit the data to a ‘specific binding with hill slope’ model. For competitive radioligand displacement studies, a baseline correction was performed by subtracting the mean nonspecific binding value from the radioligand binding values with and without competitor to obtain specific binding values. Specific binding values were then normalized such that total binding in the absence of competitor represented 100% radioligand binding, and the radioactivity associated with each concentration of competitor was a percentage of total binding. The normalized data was then fit to the ‘one-site Fit Ki’ nonlinear regression model.

5-HT2BR [1] = biological target: T2, 5-HT2BR (Homo sapiens, UniProt P41595); assay: biochemical
Protocol: as §2, §3, §4, §5, §6, §7

5-HT2AR = biological target: T3, 5-HT2AR (Homo sapiens, UniProt P28223); assay: Radioligand binding (competitive displacement and saturation), cell membranes; conditions: for Ki: pKi 5-HT2AR
T3 construct: host or cells: HEK293, transient
Protocol: (§1) Transfections were performed for 48 hours.

H1R = biological target: T4, H1R (Homo sapiens, UniProt P35367); assay: as above
T4 construct: host or cells: CHO, transient
Protocol: as §1

5-HT2BR [2] = biological target: T2, 5-HT2BR; assay: as above
Protocol: as §2, §3, §4, §5, §6, §7

[3] = displacement of [^3H]ketanserin, mean of n independent experiments, ± SD where n ≥ 5
[4] = pKi H1R, displacement of [^3H]mepyramine, mean of n independent experiments, ± SD where n ≥ 5

T4 sequence (P35367 whole entry): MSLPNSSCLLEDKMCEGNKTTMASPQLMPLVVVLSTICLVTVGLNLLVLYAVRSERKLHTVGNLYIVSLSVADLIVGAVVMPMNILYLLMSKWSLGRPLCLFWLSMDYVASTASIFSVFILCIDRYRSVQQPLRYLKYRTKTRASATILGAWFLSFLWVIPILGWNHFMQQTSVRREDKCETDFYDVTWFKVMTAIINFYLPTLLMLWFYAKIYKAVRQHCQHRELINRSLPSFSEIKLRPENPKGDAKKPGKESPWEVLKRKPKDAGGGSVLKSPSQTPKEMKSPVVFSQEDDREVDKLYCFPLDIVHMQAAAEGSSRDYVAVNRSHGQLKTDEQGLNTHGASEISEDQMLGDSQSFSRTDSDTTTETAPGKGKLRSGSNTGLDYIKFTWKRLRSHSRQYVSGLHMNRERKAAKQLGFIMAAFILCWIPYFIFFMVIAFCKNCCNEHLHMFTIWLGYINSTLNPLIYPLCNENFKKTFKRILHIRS
T2 sequence (P41595 whole entry): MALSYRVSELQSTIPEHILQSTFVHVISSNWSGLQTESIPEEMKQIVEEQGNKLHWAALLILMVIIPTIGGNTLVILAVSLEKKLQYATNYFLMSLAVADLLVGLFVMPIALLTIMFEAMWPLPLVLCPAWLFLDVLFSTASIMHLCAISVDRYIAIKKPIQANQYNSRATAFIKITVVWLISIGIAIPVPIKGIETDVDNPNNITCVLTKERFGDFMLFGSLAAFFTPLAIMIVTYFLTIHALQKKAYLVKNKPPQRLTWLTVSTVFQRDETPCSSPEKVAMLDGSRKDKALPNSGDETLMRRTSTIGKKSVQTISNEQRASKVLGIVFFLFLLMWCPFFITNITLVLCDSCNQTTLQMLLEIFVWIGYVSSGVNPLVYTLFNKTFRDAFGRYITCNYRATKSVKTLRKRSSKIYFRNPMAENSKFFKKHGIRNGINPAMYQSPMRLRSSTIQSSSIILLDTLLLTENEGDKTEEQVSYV
T3 sequence (P28223 whole entry): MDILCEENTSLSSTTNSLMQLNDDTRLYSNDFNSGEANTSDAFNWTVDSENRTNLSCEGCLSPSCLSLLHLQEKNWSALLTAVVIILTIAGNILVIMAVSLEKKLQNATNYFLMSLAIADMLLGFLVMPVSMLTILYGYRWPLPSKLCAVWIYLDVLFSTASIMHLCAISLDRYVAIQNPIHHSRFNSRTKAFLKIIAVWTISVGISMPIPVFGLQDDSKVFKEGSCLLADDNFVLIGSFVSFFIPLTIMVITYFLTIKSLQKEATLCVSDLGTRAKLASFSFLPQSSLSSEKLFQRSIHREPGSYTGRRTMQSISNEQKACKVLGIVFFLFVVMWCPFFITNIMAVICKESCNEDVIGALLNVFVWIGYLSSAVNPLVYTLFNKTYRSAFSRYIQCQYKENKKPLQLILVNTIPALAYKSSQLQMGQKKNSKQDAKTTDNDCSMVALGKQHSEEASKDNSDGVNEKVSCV

Row | SMILES | Ki (5-HT2CR) [nM] | Ki (5-HT2BR [1]) [nM] | Ki (5-HT2AR; [3]) [nM] | also measured
1 | CN(C)[C@@H]1Cc2ccccc2[C@@H](c2cccc(-c3ccccc3)c2)C1 (single isomer, unassigned) [(2S,4R)-2f, Trans-4-([1,1′-biphenyl]-3-yl)-N,N-dimethyl-1,2,3,4-tetrahydronaphthalen-2-amine] | 3.31 | 52.5 | – | –
2 | CN(C)[C@@H]1Cc2ccccc2[C@H](c2cccc(F)c2)C1 (single isomer, unassigned) [(2S,4S)-3b′, Cis-4-(3-fluorophenyl)-N, N-dimethyl-1,2,3,4-tetrahydronaphthalen-2-amine] | 437 | 912 | – | –
3 | CN(C)[C@@H]1Cc2ccccc2[C@@H](c2cccc(-c3cccc(F)c3)c2)C1 [(2S,4R)-2h, Trans-4-(3′-fluoro-[1,1′-biphenyl]-3-yl)-N,N-dimethyl-1,2,3,4-tetrahydronaphtha-len-2-amine] | – | – | – | pKi 5-HT2AR (5-HT2AR; [3]): 9.22; pKi H1R (H1R; displacement of [^3H]mepyramine, mean of n independent experiments, ± SD where n ≥ 5): 8.96
4 | CN(C)[C@@H]1Cc2ccccc2[C@@H](c2cccc(-c3ccc(Cl)cc3)c2)C1 [(2S,4R)-2j, Trans-4-(4′-chloro-[1,1′-biphenyl]-3-yl)-N,N-dimethyl-1,2,3,4-tetrahydronaphtha-len-2-amine] | 4.9 | – | 0.288 | Ki (H1R; [4]): 1.45 nM
5 | CN(C)[C@@H]1Cc2ccccc2[C@H](c2cccc(Br)c2)C1 (single isomer, unassigned) [(2R,4R)-3a, Cis-4-(3-bromophenyl)-N, N-dimethyl-1,2,3,4-tetrahydronaphthalen-2-amine] | 57.5 | 85.1 | 31.6 | –
6 | CN(C)c1ccc(-c2cccc([C@@H]3C[C@H](N(C)C)Cc4ccccc43)c2)cc1 (single isomer, unassigned) [(2S,4S)-3k, Cis-4-(4′-(dimethylamino)-[1,1′-biphenyl]-3-yl)-N,N-dimethyl-1,2,3,4-tetrahydro-naphthalen-2-amine] | – | – | – | pKi 5-HT2BR (5-HT2BR [2]): 5.52^(2) 5.68-5.37 7.10 ± 0.21^(5) 7.40-6.82 5.97^(2) 6.08-5.87 5.97^(2) 6.09-5.86
7 | CN(C)[C@@H]1Cc2ccccc2[C@H](c2cccc(-c3ccccc3)c2)C1 (single isomer, unassigned) [(2R,4R)-3f, Cis-4-([1,1′-biphenyl]-3-yl)-N,N-dimethyl-1,2,3,4-tetrahydronaphthalen-2-amine] | 26.9 | 117 | – | –
8 | CN(C)[C@@H]1Cc2ccccc2[C@H](c2cccc(-c3cccs3)c2)C1 (single isomer, unassigned) [(2R,4R)-3c, Cis-4-(3-(thiophen-2-yl)phenyl)-N,N-dimethyl-1,2,3,4-tetrahydronaphthalen-2-amine] | 24 | 105 | – | selectivity for 5-HT2ARs over 5-HT2B and H1Rs (5-HT2AR; one figure for both off-targets): 30-60 fold; Ki (5-HT2AR): 3.55 nM; Ki (H1R; read-out: pKi H1R (converted)): 234 nM
9 | CN(C)[C@@H]1Cc2ccccc2[C@H](c2cccc(-c3ccc(Cl)cc3)c2)C1 (single isomer, unassigned) [(2S,4S)-3j, Cis-4-(4′-chloro-[1,1′-biphenyl]-3-yl)-N,N-dimethyl-1,2,3,4-tetrahydronaphthalen-2-amine] | 97.7 | – | 63.1 | –
10 | CN(C)C1Cc2ccccc2C(c2cccc(-c3cccc(F)c3)c2)C1 [(2R,4S)-2h, Trans-4-(3′-fluoro-[1,1′-biphenyl]-3-yl)-N,N-dimethyl-1,2,3,4-tetrahydronaphtha-len-2-amine] | – | – | – | pKi 5-HT2AR (5-HT2AR; [3]): 8.03; Ki (H1R; [4]): 49 nM
11 | CN(C)[C@@H]1Cc2ccccc2[C@H](c2cccc(-c3ccco3)c2)C1 (single isomer, unassigned) [(2R,4R)-3d, Cis-4-(3-(furan-2-yl)phenyl)-N,N-dimethyl-1,2,3,4-tetrahydronaphthalen-2-amine] | – | – | – | Ki (H1R; [4]): 50.1 nM
12 | CN(C)[C@@H]1Cc2ccccc2[C@H](c2cccc(-c3cccc(F)c3)c2)C1 (single isomer, unassigned) [(2S,4S)-3h, Cis-4-(3′-fluoro-[1,1′-biphenyl]-3-yl)-N,N-dimethyl-1,2,3,4-tetrahydronaphthalen-2-amine] | – | – | – | pKi 5-HT2AR (5-HT2AR; [3]): 7.69; pKi H1R (H1R): 7.31 ^(2) 7.39-7.23 8.96^(3) 9.11-8.88 6.20^(2) 6.23-6.18 6.30 ± 0.10^(5) 6.42-6.14
13 | CN(C)[C@@H]1Cc2ccccc2[C@H](c2cccc(-c3cccs3)c2)C1 (single isomer, unassigned) [(2S,4S)-3c, Cis-4-(3-(thiophen-2-yl)phenyl)-N,N-dimethyl-1,2,3,4-tetrahydronaphthalen-2-amine] | 224 | 89.1 | – | Ki (5-HT2AR): 151 nM; Ki (H1R; read-out: pKi H1R (converted)): 437 nM
14 | CN(C)[C@@H]1Cc2ccccc2[C@@H](c2cccc(-c3ccncc3)c2)C1 (single isomer, unassigned) [(2S,4R)-2e, Trans-4-(3-(pyridin-4-yl)phenyl)-N,N-dimethyl-1,2,3,4-tetrahydronaphthalen-2-amine] | 42.7 | – | 7.41 | Ki (H1R; [4]): 1.38 nM
15 | CN(C)c1ccc(-c2cccc(C3CC(N(C)C)Cc4ccccc43)c2)cc1 [(2R,4S)-2k, Trans-4-(4′-(dimethylamino)-[1,1′-biphenyl]-3-yl)-N,N-dimethyl-1,2,3,4-tetra-hydronaph-thalen-2-amine] | – | – | – | pKi 5-HT2BR (5-HT2BR [2]): 5.52^(2) 5.68-5.37 7.10 ± 0.21^(5) 7.40-6.82 5.97^(2) 6.08-5.87 5.97^(2) 6.09-5.86
16 | CN(C)C1Cc2ccccc2C(c2cccc(-c3ccc(Cl)cc3)c2)C1 [(2R,4S)-2j, Trans-4-(4′-chloro-[1,1′-biphenyl]-3-yl)-N,N-dimethyl-1,2,3,4-tetrahydronaphtha-len-2-amine] | 7.08 | – | 5.37 | Ki (H1R; [4]): 14.5 nM
17 | CN(C)[C@@H]1Cc2ccccc2[C@@H](c2cccc(-c3ccccc3)c2)C1 (single isomer, unassigned) [(2R,4S)-2f, Trans-4-([1,1′-biphenyl]-3-yl)-N,N-dimethyl-1,2,3,4-tetrahydronaphthalen-2-amine] | 69.2 | 112 | – | –
18 | CN(C)[C@@H]1Cc2ccccc2[C@H](c2cccc(-c3ccc(Cl)cc3)c2)C1 (single isomer, unassigned) [(2R,4R)-3j, Cis-4-(4′-chloro-[1,1′-biphenyl]-3-yl)-N,N-dimethyl-1,2,3,4-tetrahydronaphthalen-2-amine] | 9.33 | – | 1.7 | pKi H1R (H1R): 7.84^(2) 7.89-7.78 8.84^(3) 8.86-8.82 ND 6.40^(3) 6.41-6.40
19 | CN(C)c1ccc(-c2cccc([C@@H]3C[C@H](N(C)C)Cc4ccccc43)c2)cc1 (single isomer, unassigned) [(2R,4R)-3k, Cis-4-(4′-(dimethylamino)-[1,1′-biphenyl]-3-yl)-N,N-dimethyl-1,2,3,4-tetrahydro-naphthalen-2-amine] | – | – | – | pKi 5-HT2BR (5-HT2BR [2]): 5.52^(2) 5.68-5.37 7.10 ± 0.21^(5) 7.40-6.82 5.97^(2) 6.08-5.87 5.97^(2) 6.09-5.86
20 | CN(C)[C@@H]1Cc2ccccc2[C@H](c2cccc(Cl)c2)C1 (single isomer, unassigned) [(2S,4S)-3b, Cis-4-(3-chlorophenyl)-N, N-dimethyl-1,2,3,4-tetrahydronaphthalen-2-amine] | – | 389 | – | –
21 | CN(C)[C@@H]1Cc2ccccc2[C@H](c2cccc(-c3ccccc3F)c2)C1 (single isomer, unassigned) [(2S,4S)-3g, Cis-4-(2′-fluoro-[1,1′-biphenyl]-3-yl)-N,N-dimethyl-1,2,3,4-tetrahydronaphthalen-2-amine] | – | – | 40.7 | pKi 5-HT2BR (5-HT2BR [2]): 7.36^(2) 7.36-7.35 7.09^(3) 7.23-6.90 6.53^(3) 6.71-6.30 6.33^(2) 6.49-6.17
22 | CN(C)C1Cc2ccccc2C(c2cccc(-c3ccccc3F)c2)C1 (single isomer, unassigned) [(2R,4S)-2g, Trans-4-(2′-fluoro-[1,1′-biphenyl]-3-yl)-N, N-dimethyl-1,2,3,4-tetrahydronaphtha-len-2-amine] | – | 43.7 | 30.9 | pKi H1R (H1R): 6.93^(2) 7.02-6.84 8.75^(4) 9.1-8.62 ND 6.54^(2) 6.67-6.40
23 | CN(C)[C@@H]1Cc2ccccc2[C@H](c2cccc(F)c2)C1 (single isomer, unassigned) [(2R,4R)-3b′, Cis-4-(3-fluorophenyl)-N, N-dimethyl-1,2,3,4-tetrahydronaphthalen-2-amine] | 251 | 447 | – | –
24 | CN(C)[C@@H]1Cc2ccccc2[C@@H](c2cccc(-c3ccco3)c2)C1 (single isomer, unassigned) [(2S,4R)-2d, Trans-4-(3-(furan-2-yl)phenyl)-N,N-dimethyl-1,2,3,4-tetrahydronaphthalen-2-amine] | – | – | – | Ki (H1R; [4]): 3.39 nM
25 | CN(C)C1Cc2ccccc2C(c2cccc(-c3ccccc3F)c2)C1 (single isomer, unassigned) [(2S,4R)-2g, Trans-4-(2′-fluoro-[1,1′-biphenyl]-3-yl)-N, N-dimethyl-1,2,3,4-tetrahydronaphtha-len-2-amine] | – | 81.3 | 0.813 | Ki (H1R; [4]): 1.78 nM
26 | CN(C)[C@@H]1Cc2ccccc2[C@H](c2cccc(Cl)c2)C1 (single isomer, unassigned) [(2R,4R)-3b, Cis-4-(3-chlorophenyl)-N, N-dimethyl-1,2,3,4-tetrahydronaphthalen-2-amine] | – | 115 | – | –
